Article PMC11641365, “Evaluation of In Vitro Biological Activity of Flavanone/Chromanone Derivatives: Molecular Analysis of Anticancer Mechanisms in Colorectal Cancer” (International Journal of Molecular Sciences, 2024)
Like-named read-outs stand apart in the source and are kept apart here.

Key:
Type in all cases: cell-based, human
SW620 [1] = assay: Mitochondrial membrane potential (ΔΨm), JC-1 probe; conditions: compound at IC50, vs control
Description: Changes in mitochondrial potential in cancer cells exposed to the tested derivatives were monitored using the fluorescent probe JC-1. In non-apoptotic cells, JC-1 aggregates emit red-orange fluorescence. During changes in mitochondrial membrane potential, such as those associated with the initiation of PCD stages (both hyperpolarization and depolarization of mitochondrial membranes), JC-1 is converted to monomers, emitting green fluorescence.
5,5,6,6-Tetrachloro-1,1,3,3-tetraethylbenzimidazolylcarbocyanine iodide (JC-1) is one of the most reliable fluorescent probes used to assess changes in mitochondrial membrane potential (ΔΨ). In living cells with intact mitochondrial membranes, the lipophilic, cationic dye JC-1 penetrates the negatively charged mitochondrial matrix as a monomer, where it forms fluorescent aggregates with red-orange fluorescence (λex = 514 nm, λem = 590). […] The fluorescence ratio of aggregates (λem = 590 nm) and monomers (λem = 529 nm)—590 nm/529 nm—reflects the level of damage to the mitochondrial membrane.
Cells were seeded in black 96-well fluorometric microplates at a density of 10 × 10^3 cells/mL. […] Following treatment, the medium was removed, and the cell monolayers were washed twice with HBSS (140 mM NaCl, 5 mM KCl, 0.8 mM MgCl2, 1.8 mM CaCl2, 1 mM Na2HPO4, 10 mM HEPES, and 1% glucose). Then, 50 μL of a JC-1 solution in HBSS was added to each well, and the cells were incubated for 30 min in the dark at 37 °C (final JC-1 concentration 5 μM). After removing the fluorescent dye and replacing it with fresh HBSS, fluorescence measurements were taken using a Perkin-Elmer LS-5B spectrofluorometer (Perkin-Elmer LS-5B spectrofluorometer, Waltham, MA, USA). The excitation and emission wavelengths for JC-1 monomers were 514 nm and 529 nm, respectively, while for aggregates, they were 514 nm and 590 nm. The results were expressed as a percentage change in the fluorescence ratio of JC-1 aggregates to JC-1 monomers compared to the control, which was set at 100%.

HT-29 = assay: MTT cell viability assay; conditions: for IC50: HT-29, 24 h incubation with compound, mean ± SD of three experiments, read-out: Cytotoxic effect, IC50; for IC50 difference, HT-29 vs other cell lines: HT-29, difference of IC50 values, read-out: IC50 in HT-29 higher compared to the other cell lines
Procedure: (§1) The cytotoxic activity of the 3-benzylideneflavanones, 3-benzylidenechromanones derivatives (compounds 1, 2, 3, 4, 5) and 5′-(3-methoxyphenyl)-2-phenyl-4′,5′-dihydro-4H-spiro[chromano-3,3′-pirazol]-4-one (compound 3a) was evaluated using the MTT assay (4,5-dimethylthiazol-2-yl)-2,5-diphenyltetrazoliumbromide), a colorimetric method that quantifies cell viability.
(§2) Cell viability was determined using the metabolic microplate spectrophotometric assay with Methylthiazolyl diphenyltetrazolium bromide (MTT) (Sigma-Aldrich; St. Louis, MO, USA). The MTT method belongs to metabolic tests for determining cell viability and consists of measuring the absorbance of a violet solution of formazan, a product of the reduction of a water-soluble yellow MTT by oxidoreductive enzymes (mainly mitochondrial succinate dehydrogenase) of living cells. The amount of the reaction product (water-insoluble formazan crystals) is proportional to the number of living and metabolically active cells in the sample. In the case of damaged or dead cells, formazan is formed in smaller amounts, or it is not formed.
(§3) The appropriate number of cells for a given cell line (6–8 × 10^3 cells/mL) were seeded onto colorless, sterile 96-well microplates (Nunc, Roskilde, Denmark) in the number appropriate for a given cell line. After 24 h of culture, various concentrations of the studied compounds (10^−7–10^−5 M) freshly prepared in DMSO (final concentration DMS < 0.1%) and diluted with complete culture medium were added and incubated in a CO2 incubator for 24 h. After this time, the medium was removed; the cell monolayer was washed twice with sterile PBS solution; and fresh culture medium was added to the microplate wells. After 48 h of cell culture, the MTT test was performed. A volume of 50 μL of tetrazolium salt solution (final concentration 0.05 mg/mL) was added to each microplate well. The microplate was placed for 3–4 h (depending on the cell line) in a CO2 incubator. After incubation, 100 μL of DMSO was added to the wells of the microplate to dissolve the purple formazan crystals formed in the living cell environment. The absorbance of the formazan solution, after gentle mixing, was read at a wavelength of λ = 580 nm and a reference wavelength of λ = 720 nm (Biotek Power Wave HT, Biotek Instruments, Winooski, VT, USA). The percentage of living cells was calculated by comparing the absorbance value of the tested samples with the absorbance value of the control (cells not treated with compounds). The absorbance of the control was taken as 100%.

Caco-2 = assay: MTT cell viability assay; conditions: 24 h incubation with compound, mean ± SD of three experiments, read-out: Cytotoxic effect, IC50
Procedure: as §1, §2, §3

SW620 [2] = assay: Autophagy induction, monodansylcadaverine (MDC) fluorescence; conditions: compound at IC50, 24 h, vs control
Procedure: (§4) Autophagy induction in cells treated with the tested drugs was determined by measuring Monodansylcadaverine (MDC; Sigma-Aldrich; St. Louis, MO, USA) fluorescence according to a modified method described by Vázquez. […] In the cell, MDC accumulates in lipid-rich cell membranes. It has been shown that MDC can be used as a dye for detecting autophagy, as it accumulates in autophagolysosomes as a result of interaction with membrane lipids.
(§5) Cells were seeded in black 96-well fluorometric microplates at a density of 10 × 10^3 cells/mL. […] Following compound incubation, the medium was removed, and the cell monolayers were washed twice with HBSS (140 mM NaCl, 5 mM KCl, 0.8 mM MgCl2, 1.8 mM CaCl2, 1 mM Na2HPO4, 10 mM HEPES, and 1% glucose). A solution of MDC at a final concentration of 50 μM was added to each well and incubated in a CO2 cell culture incubator at 37 °C for 15 min. After incubation with MDC, the probe was removed, and the cells were lysed with 50 μL of lysis buffer (10 mM TRIS-HCl; pH 8 containing 0.1% Triton X-100). After lysis, fluorescence was measured at an excitation wavelength of λex = 390 nm and an emission wavelength of λem = 460 nm using a Perkin-Elmer LS-5B spectrofluorometer (Waltham, MA, USA). In order to normalize the number of cells in individual samples, the amount of DNA was determined by adding 50 μL of EB (final concentration 0.2 mM) to each well after measuring the MCB fluorescence and measuring the EB fluorescence at an excitation wavelength of λex = 530 nm and an emission wavelength of λem = 590 nm. The results were calculated as the ratio of MDC fluorescence to EB fluorescence.

LoVo = assay: as above; conditions: compound at IC50, 24 h, vs control
Procedure: as §4, §5

Compound	Change in mitochondrial membrane potential ΔΨm (SW620 [1])	IC50 (HT-29; Homo sapiens, HT-29, 24 h)	IC50 difference, HT-29 vs other cell lines (HT-29; Homo sapiens)	IC50 (Caco-2)	IC50 (Caco-2; Homo sapiens, Caco-2, 24 h)	Decrease in MDC fluorescence intensity (SW620 [2])	Change in MDC fluorescence intensity (LoVo)	Increase in mitochondrial membrane potential (hyperpolarization) (SW620 [1])	IC50 (HT-29)	Change in MDC fluorescence intensity (SW620 [2])	Decrease in MDC fluorescence intensity (LoVo)	Increase in MDC fluorescence intensity (autophagy) (SW620 [2])	Increase in MDC fluorescence intensity (autophagy) (LoVo)
O=C1/C(=C/c2ccccc2)C(c2ccccc2)Oc2ccccc21 (centres unmarked) [Compound 5]	no statistically significant changes	31.1 ± 1.4 µM	~10 µM	72.1 ± 1.7 µM	~70 µM	20%	No significant changes						
COc1cccc(/C=C2/C(=O)c3ccccc3OC2c2ccccc2)c1 (centres unmarked) [Compound 3]		~115 µM		69.9 ± 5.1 µM	~70 µM			~60%	117 ± 6.1 µM	no significant changes	20%		
O=C1/C(=C/c2ccccc2)COc2ccccc21 [Compound 1]		21.1 ± 1.3 µM	~10 µM		10.2 ± 1.8 µM			approximately 40%				approximately 40%	approximately 20%
